Source: the supplement of paper PMC4862054
Values joined by “and” are separate entries in the source; they are usually repeats but may differ in a detail not shown here. Equal values may be shown once.

Legend:
Assay in all cases: normalised viability (% of control), CellTiter-Blue; higher = more viable cells (about 100 = DMSO control)
Conditions in all cases: incubation time: 72 h
[1] = tested on: BT-474
Outline: (§1)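 The reported figure is normalised viability at a single listed concentration of the series. Breast cancer cell lines (20 µl suspension) went onto 384-well plates holding compound in 5 µl medium for 72 h. CellTiter-Blue (2.5 µl, 2 h, 37 °C) was read by fluorescence at 560/590 nm, and each plate was scaled to vehicle at 100 and a positive kill control at 0.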

[2] = tested on: BT-549
Outline: as §1

[3] = tested on: CAL-148
Outline: as §1

[4] = tested on: CAL-51
Outline: as §1

[5] = tested on: CAL-85-1
Outline: as §1

[6] = tested on: DU-4475
Outline: as §1

[7] = tested on: HCC1143
Outline: as §1

[8] = tested on: HCC1599
Outline: as §1

[9] = tested on: HCC1937
Outline: as §1

[10] = tested on: HDQ-P1
Outline: as §1

[11] = tested on: Hs578T
Outline: as §1

[12] = tested on: MDA-MB-231
Outline: as §1

[13] = tested on: MDA-MB-436
Outline: as §1

[14] = tested on: MDA-MB-453
Outline: as §1

[15] = tested on: MDA-MB-468
Outline: as §1

[16] = tested on: MFM-223
Outline: as §1

[17] = tested on: SK-BR-3
Outline: as §1

C=CCN(/C=C1/C(=O)O[C@H](COC)[C@@]2(C)C1=C(O)C(=O)C1=C2[C@H](OC(C)=O)C[C@]2(C)C(=O)CC[C@@H]12)CC=C [PX-866]
normalised viability [%]
Conditions | 3 nM | 10 nM | 30 nM | 100 nM | 1000 nM | 10000 nM
[1] | – | 118 | – | – | 87.3 | 41.9
[2] | – | 87.8 | – | – | 81.9 | 57
[3] | 97.2 | – | 105 | 107 | – | –
[4] | 118 | – | 107 | 103 | – | –
[5] | 111 | – | 97.4 | 102 | – | –
[6] | 109 | – | 96.1 | 92.7 | – | –
[7] | – | 91.6 | – | – | 80.8 | 60.8
[8] | – | 98.3 | – | – | 105 | 78.3
[9] | – | 106 | – | – | 73.6 | 59.7
[10] | 113 | – | 128 | 114 | – | –
[11] | – | 120 | – | – | 89.4 | 40.1
[12] | – | 92.9 | – | – | 72.6 | 50
[13] | – | 93.3 | – | – | 90.2 | 62
[14] | 128 | – | 95.7 | 98.9 | – | –
[15] | – | 112 | – | – | 62.7 | 21.9
[16] | – | 86.5 | – | – | 96.9 | 95.9
[17] | – | 109 | – | – | 61.7 | 28.5

CC[C@H](CO)Nc1nc(NCc2ccccc2)c2ncn(C(C)C)c2n1 [Roscovitine]
normalised viability [%]
Conditions | 3 nM | 10 nM | 30 nM | 100 nM | 1000 nM | 10000 nM
[1] | – | 109 | – | – | 96.5 | 79.4
[2] | – | 83.8 | – | – | 84.4 | 76.4
[3] | 77.4 | – | 85.8 | 83.5 | – | –
[4] | 111 | – | 105 | 105 | – | –
[5] | 93.3 | – | 88.8 | 90.8 | – | –
[6] | 99.9 | – | 101 | 89.7 | – | –
[7] | – | 84.3 | – | – | 88.1 | 74.7
[8] | – | 109 | – | – | 95.8 | 64.4
[9] | – | 83.8 | – | – | 105 | 77.2
[10] | 101 | – | 103 | 98.3 | – | –
[11] | – | 111 | – | – | 91.4 | 42.6
[12] | – | 88 | – | – | 96.5 | 76.6
[13] | – | 107 | – | – | 92.7 | 79.4
[14] | 105 | – | 114 | 109 | – | –
[15] | – | 93 | – | – | 106 | 83.7
[16] | – | 92.5 | – | – | 91.5 | 85.1
[17] | – | 90.3 | – | – | 104 | 87

O=C(CCCCCCC(=O)Nc1ccccc1)NO [Vorinostat]
Conditions | normalised viability
[1], 10 nM | 98.6% and 105%
[1], 1000 nM | 92.6% and 78.7%
[1], 10000 nM | 3.63% and 2.44%
[2], 10 nM | 108% and 102%
[2], 1000 nM | 89.2% and 82.3%
[2], 10000 nM | 48% and 33.2%
[3], 3 nM | 78% and 95.3%
[3], 30 nM | 90.2% and 100%
[4], 3 nM | 113% and 102%
[4], 30 nM | 102%
[4], 100 nM | 106% and 97.5%
[5], 3 nM | 91% and 103%
[5], 30 nM | 85.7% and 96.9%
[5], 100 nM | 100% and 106%
[6], 3 nM | 108% and 97.7%
[6], 30 nM | 104% and 99.7%
[6], 100 nM | 99.1% and 94.5%
[7], 10 nM | 86.1% and 105%
[7], 1000 nM | 86.9% and 84.5%
[7], 10000 nM | 21.4% and 24.2%
[8], 10 nM | 110% and 97.9%
[8], 1000 nM | 85.5% and 99.2%
[8], 10000 nM | 20.5%
[9], 10 nM | 73% and 92.4%
[9], 1000 nM | 77.7% and 63.4%
[9], 10000 nM | 24.6% and 22.7%
[10], 3 nM | 99.4% and 88.7%
[10], 30 nM | 97.2% and 84.3%
[10], 100 nM | 95.6% and 87.5%
[11], 10 nM | 111% and 118%
[11], 1000 nM | 88.4% and 87%
[11], 10000 nM | 12.3% and 11.5%
[12], 10 nM | 99.4% and 89.5%
[12], 1000 nM | 88.3% and 84.1%
[12], 10000 nM | 13.9% and 12.9%
[13], 10 nM | 105% and 104%
[13], 10000 nM | 41.3% and 40.6%
[14], 3 nM | 107% and 96.8%
[15], 10 nM | 105%
[15], 1000 nM | 80.6% and 76%
[15], 10000 nM | 32.5% and 40.6%
[16], 10 nM | 97.4% and 103%
[16], 1000 nM | 84% and 74%
[16], 10000 nM | 19.7% and 18.4%
[17], 10 nM | 104% and 95.2%
[17], 1000 nM | 54.3% and 45.8%
[17], 10000 nM | 3.79% and 4.28%
